Drawing on patent US10287267B2, “Isoquinolin-3-yl carboxamides and preparation and use thereof” (Samumed, LLC, priority 2016, dated 2019), this text covers EC50, IC50 and inhibition for 17 compounds.

In assay [1] the test system is Tau phosphorylation at Ser396 (pSer396). Put plainly: Tau phosphorylation assay (pSer396 ELISA / western blot) in SH-SY5Y cells.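 Note: EC50 for reduction of Tau pSer396 in lysed cells, measured by colorimetric ELISA or chemiluminescent western blot, both using the same pSer396 antibody.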 Type of assay: cell-based, human. To be noted: Homo sapiens; SH-SY5Y cells, overnight (16-18 h) exposure; read-out: pSer396 Tau EC50.
In assay [2] the test system is secreted β-amyloid 40 (Aβ40) peptide. Put plainly: Secreted β-amyloid 40 (Aβ40) peptide in APP overexpressing SH-SY5Y-APP cells. Format: cell-based. To be noted: Homo sapiens, overnight (16-18 hours).
Experimental: Representative compounds were screened using the cell-based assay procedure for secreted β-amyloid 40 (Aβ40) peptide in an APP overexpressing cell line described below.
SH-SY5Y cells were infected with lentivirus to overexpress amyloid (A4) beta precursor protein (APP), hereafter referred to as the SH-SY5Y-APP cells.
SH-SY5Y cells were seeded onto 6-well plates at
The cell assay procedure start 18 h prior to treatment, as SH-SY5Y-APP cells were seeded onto 96-well plates at
At this time, designated wells were seeded with SH-SY5Y cells that were seeded and treated with puromycin at
Cells were exposed overnight (16-18 hours) in a 37° C. incubator before supernatant was harvested. […] The original plates with seeded cells were tested for cytotoxicity by measure of adenosine triphosphate (ATP) release by adding CellTiter-Glo® diluted 1:4 in distilled water (G7573, Promega) and transferring lysed cells to a completely black 96-well plate to be read with the Cytation3. Plates containing supernatant were spun down at 1200 g for 10 minutes to remove any cellular debris. Supernatant was then diluted 1:2 with a diluent from V-PLEX Aβ40 Peptide (6E10) Kit and directly tested for secreted Aβ40 peptide (K150SKE, Meso Scale Discovery).
For assay [3], the target named is recombinant DYRK1A kinase (Homo sapiens (Human), UniProt Q13627). The assay can be described thus: DYRK1A kinase assay (Ser/Thr 18 peptide Z-lyte FRET).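 Note: Read-out is the coumarin to fluorescein emission ratio, referenced to unphosphorylated (0%) and phosphorylated (100%) Ser/Thr 18 peptide controls, values from dose-response curves by non-linear regression.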 Format: biochemical. The note with it: 30 μM ATP, 1 h room temperature.
In another assay the target is recombinant GSK3β kinase (Homo sapiens (Human), UniProt P49841). The assay can be described thus: GSK3β kinase assay (Ser/Thr 09 peptide Z-lyte FRET).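 Note: kinase activity read as coumarin to fluorescein emission ratio, 11-point threefold dilutions from 10 µM to 0.0003 µM in duplicate, unphosphorylated and phosphorylated peptide as 0% and 100% controls.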 Type of assay: biochemical. The note with it: 46 μM ATP, 1 h room temperature.
Assay [4] deals with Wnt pathway (Sp5-Luc reporter, TCF/LEF binding sites) in SW480 colon carcinoma cells. The assay can be described thus: Screening assay for Wnt activity: Sp5-Luc reporter gene assay.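 Note: firefly luciferase luminescence read in stably transduced SW480 cells carrying the Sp5 promoter reporter with eight TCF/LEF sites, compounds given in 0.1% DMSO final.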 To be noted: Homo sapiens; Sp5-Luc reporter, SW480 cells, 36 to 48 hours. Type of assay: cell-based, human. A general note: Reporter assays use an easily measured gene product as a stand-in for the process of interest.
Experimental: The screening assay for Wnt activity is described as follows.
Following incubation, 15 μl of BriteLite Plus luminescence reagent (Perkin Elmer) was added to each well of the 384-well assay plates. The plates were placed on an orbital shaker for 2 min and then luminescence was quantified using the Envision (Perkin Elmer) plate reader.

The test system of assay [5] is α-smooth muscle actin (αSMA) positive LL29 cells. Put plainly: Inhibition of fibrotic process: αSMA in TGF-β1 treated primary human fibroblasts from IPF patients.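 For all read-outs here: controls were TGF-β1 stimulated wells with DMSO vehicle (positive) and cells given DMSO alone (negative), cultured in F12 medium with 1% fetal bovine serum.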 Format: cell-based. The note with it: Homo sapiens, Fibroblast; for EC50: 96 h, Table 8, LL29 fibroblasts from IPF patients, TGF-β1 20 ng/mL, 4 days, dose-response 10 μM to 0.94 nM.
The next assay concerns IL-6. The assay can be described thus: IL-6 inhibition in LPS-stimulated human peripheral blood mononuclear cells (HTRF).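 For all read-outs here: IL-6 detected by HTRF with an XL665- and Cryptate-labelled anti-IL-6 antibody pair, samples run in duplicate, EC50 obtained from a four-parameter Levenberg-Marquardt curve fit.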 Format: cell-based. To be noted: Homo sapiens, PBMC; for EC50: Table 9, huPBMCs, LPS 50 ng/mL, 22 hours, dose-response starting from 10 μM. (In general: Time-resolved FRET reads energy transfer from a long-lived donor to a nearby acceptor.)
In assay [6] the test system is SW480 colon carcinoma cells. The assay can be described thus: Cell viability assay (CellTiter-Glo). To be noted: Homo sapiens; for EC50: 96 h, SW480 cells, CellTiter-Glo, four days incubation. Type of assay: cell-based, human. In general terms: In ATP-based viability assays light output follows the ATP content of the culture.
The mark [7] stands for this setting: read-out: percent value in parentheses beside EC50 >10 μM.

recombinant GSK3β kinase, sequence (P49841 whole entry): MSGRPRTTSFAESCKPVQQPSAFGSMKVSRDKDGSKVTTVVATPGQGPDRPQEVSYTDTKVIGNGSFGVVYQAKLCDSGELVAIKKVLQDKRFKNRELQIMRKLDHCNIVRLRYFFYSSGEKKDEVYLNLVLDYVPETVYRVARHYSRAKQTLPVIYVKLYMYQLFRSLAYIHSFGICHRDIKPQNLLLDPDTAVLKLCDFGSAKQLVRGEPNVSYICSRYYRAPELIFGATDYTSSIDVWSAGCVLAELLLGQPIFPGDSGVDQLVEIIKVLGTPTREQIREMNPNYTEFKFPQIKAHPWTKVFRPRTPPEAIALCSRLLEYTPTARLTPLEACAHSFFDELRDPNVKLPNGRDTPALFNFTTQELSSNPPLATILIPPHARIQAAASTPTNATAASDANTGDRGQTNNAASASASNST
Experimental for IL-6: After 22 hour incubation, a mixture of anti-IL6 XL665 and anti-IL-6 Cryptate diluted in reconstitution buffer (Catalog #62IL6PEC, Cisbio Inc., Bedford, Mass.) was added to each well. […] All samples were processed in duplicate. […] EC50 was determined using software generated by Dotmatics Limited (Windhill Bishops Stortford Herts, UK) using the Levenberg-Marquardt 4 parameter fitting procedure with finite different gradients.

With `Cn1cc(-c2ccc3cnc(NC(=O)C4CCN(CCC(F)(F)F)CC4)cc3c2)cn1` [Compound 82, N-(6-(1-Methyl-1H-pyrazol-4-yl)isoquinolin-3-yl)-1-(3,3,3-trifluoropropyl) piperidine-4-carboxamide], the EC50 – broadly, the concentration needed to bring the measured effect to its halfway point – in assay [1] turned out to be 315 nM; in assay [3], 0.9 nM; at recombinant GSK3β kinase, 22 nM; in assay [4] it was 4950 nM; in assay [5], 156 nM; in the assay on IL-6 it was 1190 nM. In assay [6], this compound yielded an EC50 of 2710 nM. The IC50 (as a rule, the concentration that inhibits the measured activity by half) in assay [2] came out at 5100 nM.
Take `Cn1cncc1-c1ccc2cnc(NC(=O)C3CCC(F)(F)CC3)cc2c1` [Compound 263, 4,4-Difluoro-N-(6-(1-methyl-1H-imidazol-5-yl)isoquinolin-3-yl) cyclohexanecarboxamide]: the EC50 worked out at 119 nM in assay [1]; 1.3 nM in assay [3]; 18 nM at recombinant GSK3β kinase; 1300 nM in assay [4]; 134 nM in assay [5]; 451 nM with IL-6. For the same compound, in assay [6], it took 1290 nM to reach a half-maximal effect (EC50). The IC50 in assay [2] came out at 5300 nM.
Take `Cn1nncc1-c1ccc2cnc(NC(=O)C3CCN(CCC(F)(F)F)CC3)cc2c1` [Compound 248, N-(6-(1-Methyl-1H-1,2,3-triazol-5-yl)isoquinolin-3-yl)-1-(3,3,3-trifluoropropyl)piperidine-4-carboxamide]: the EC50 is 905 nM in assay [1]; 37.4 nM in assay [3]; 266 nM at recombinant GSK3β kinase; greater than 10000 nM in assay [4]; 7920 nM in assay [5]; 9730 nM with IL-6. The same compound came in with an EC50 in assay [6] greater than 10000 nM. In assay [2], this compound had an IC50 greater than 10000 nM.
Regarding `Cn1cc(-c2ccc3cnc(NC(=O)C4CCN(CC(F)F)CC4)cc3c2)cn1` [Compound 84, 1-(2,2-Difluoroethyl)-N-(6-(1-methyl-1H-pyrazol-4-yl)isoquinolin-3-yl) piperidine-4-carboxamide], the EC50 is 454 nM in assay [1]; 1.3 nM in assay [3]; 20 nM on recombinant GSK3β kinase; 1900 nM in assay [4]; 148 nM in assay [5]; 2460 nM in the assay with IL-6. Further, the midpoint of the response in assay [6], the EC50, lay at 1950 nM. The IC50 in assay [2] amounted to 4400 nM.
Regarding `Cn1cc(-c2ccc3cnc(NC(=O)C4CCN(CCC(F)(F)F)CC4)cc3c2)nn1` [Compound 271, N-(6-(1-methyl-1H-1,2,3-triazol-4-yl)isoquinolin-3-yl)-1-(3,3,3-trifluoropropyl)piperidine-4-carboxamide], the EC50 was 124 nM in assay [1]; 2.1 nM in assay [3]; 3 nM on recombinant GSK3β kinase; 1720 nM in assay [4]; 64 nM in assay [5]; 3080 nM with IL-6. The compound further registered an EC50 in assay [6] of 2960 nM. The compound also displayed an IC50 in assay [2] of 4600 nM.
Turning to `Cn1cc(-c2ccc3cnc(NC(=O)C4CCN(CC(C)(C)C)CC4)cc3c2)cn1` [Compound 78, N-(6-(1-Methyl-1H-pyrazol-4-yl)isoquinolin-3-yl)-1-neopentylpiperidine-4-carboxamide], the EC50 in assay [1] came out at 265 nM; in assay [3] it was 4.7 nM; at recombinant GSK3β kinase, 63 nM; in assay [4], 1000 nM; in assay [5] it was 108 nM; in the assay on IL-6 it was 2940 nM. In addition, the EC50 in assay [6] is 1840 nM. Also, the midpoint of inhibition in assay [2], the IC50, lay at 889 nM.
On to `Cn1cc(-c2ccc3cnc(NC(=O)C4CCN(C5CC5)CC4)cc3c2)cn1` [Compound 76, 1-Cyclopropyl-N-(6-(1-methyl-1H-pyrazol-4-yl)isoquinolin-3-yl)piperidine-4-carboxamide], for which the EC50 in assay [1] was determined as 219 nM; in assay [3], 2.3 nM; on recombinant GSK3β kinase it was 31 nM; in assay [4], 705 nM; in assay [5], 87 nM; in the assay with IL-6, 1130 nM. In addition, the midpoint of the response in assay [6], the EC50, lay at 1560 nM. This compound registered an IC50 in assay [2] of 1200 nM.
On to `Cn1cc(-c2ccc3cnc(NC(=O)CN4CCCCC4)cc3c2)cn1` [Compound 115, N-(6-(1-Methyl-1H-pyrazol-4-yl)isoquinolin-3-yl)-2-(piperidin-1-yl) acetamide], for which the EC50 was found to be 311 nM in assay [1]; 3.4 nM in assay [3]; 30 nM on recombinant GSK3β kinase; 2400 nM in assay [4]; 605 nM in assay [5]; 1910 nM with IL-6. A half-maximal response in assay [6] (EC50) required 3500 nM. In assay [2], this compound yielded an IC50 of 956 nM.
Turning to `Cn1cc(-c2ccc3cnc(NC(=O)[C@@H]4CCCNC4)cc3c2)cn1` [Compound 111, (R)—N-(6-(1-Methyl-1H-pyrazol-4-yl)isoquinolin-3-yl)piperidine-3-carboxamide], the EC50 is 597 nM in assay [1]; 3.9 nM in assay [3]; 40 nM at recombinant GSK3β kinase; 743 nM in assay [4]; 280 nM in assay [5]; 526 nM in assay [6]. The IC50 in assay [2] turned out to be 272 nM.
On to `Cn1cc(-c2ccc3cnc(NC(=O)C4CCN(C5CCOCC5)CC4)cc3c2)cn1` [Compound 332, N-(6-(1-Methyl-1H-pyrazol-4-yl)isoquinolin-3-yl)-1-(tetrahydro-2H-pyran-4-yl)piperidine-4-carboxamide], for which the half-maximal effective concentration (EC50) in assay [1] turned out to be 249 nM; in assay [3], 3.5 nM; at recombinant GSK3β kinase, 39 nM; in assay [4], 662 nM; in assay [5] it was 291 nM; in the assay on IL-6, 1070 nM. Further, the 50% effective concentration (EC50) in assay [6] was 1000 nM.
Turning to `Cn1cncc1-c1ccc2cnc(NC(=O)C3CCN(S(C)(=O)=O)CC3)cc2c1` [Compound 561, N-(6-(1-Methyl-1H-imidazol-5-yl)isoquinolin-3-yl)-1-(methylsulfonyl) piperidine-4-carboxamide], the EC50 came to 395 nM in assay [1]; 1.5 nM in assay [3]; 12 nM on recombinant GSK3β kinase; 1460 nM in assay [4]; 600 nM in assay [5]; 634 nM with IL-6. Also, the EC50 in assay [6] is 924 nM.
Take `CN1CCN(CC(=O)Nc2cc3cc(-c4cnn(C)c4)ccc3cn2)CC1` [Compound 118, N-(6-(1-Methyl-1H-pyrazol-4-yl)isoquinolin-3-yl)-2-(4-methylpiperazin-1-yl)acetamide]: the EC50 worked out at 1200 nM in assay [1]; 9.6 nM in assay [3]; 79 nM on recombinant GSK3β kinase; 3600 nM in assay [4]; 821 nM in assay [5]; 3610 nM in the assay with IL-6. Besides, the EC50 in assay [6] worked out at 5940 nM.
With `O=C(Nc1cc2cc(-c3cnc4n3CCNC4)ccc2cn1)C1CC(F)(F)C1` [Compound 986, 3,3-Difluoro-N-(6-(5,6,7,8-tetrahydroimidazo[1,2-a]pyrazin-3-yl)isoquinolin-3-yl)cyclobutane-1-carboxamide], the EC50 in assay [1] was 387 nM; in assay [3], 11 nM; at recombinant GSK3β kinase it was 21 nM; in assay [4], 1380 nM; in assay [5], 158 nM; in the assay with IL-6, greater than 10000 nM. Besides, in assay [6], the EC50 turned out to be 3300 nM. In the assay with IL-6 (setting [7]), the inhibition at 10 µM is 13.4%.
With `CC(C)OCC(=O)Nc1cc2cc(-c3cncn3C)ccc2cn1` [Compound 1008, 2-Isopropoxy-N-(6-(1-methyl-1H-imidazol-5-yl)isoquinolin-3-yl)acetamide], the EC50 in assay [1] was determined as 643 nM; in assay [3], 7.5 nM; on recombinant GSK3β kinase, 91 nM; in assay [4], 3350 nM; in assay [5] it was 318 nM; in the assay with IL-6, 7590 nM. The compound further yielded an EC50 in assay [6] greater than 10000 nM. The inhibition at 10 µM in assay [6] (SW480, read-out: percent inhibition at 10 μM) worked out at 37.2%.
`C[C@@H]1CCCN1CC(=O)Nc1cc2cc(-c3cnco3)ccc2cn1` [Compound 982, (R)-2-(2-Methylpyrrolidin-1-yl)-N-(6-(oxazol-5-yl)isoquinolin-3-yl) acetamide]: the EC50 was 1100 nM in assay [1]; 19.2 nM in assay [3]; 265 nM on recombinant GSK3β kinase; 2710 nM in assay [4]; 767 nM in assay [5]; 2790 nM in the assay on IL-6. The same compound had an EC50 in assay [6] of 1210 nM.
As to `Cn1cc(-c2ccc3cnc(NC(=O)C4CC4)cc3c2)nn1` [Compound 433, N-(6-(1-Methyl-1H-1,2,3-triazol-4-yl)isoquinolin-3-yl) cyclopropanecarboxamide], the EC50 in assay [1] is 32 nM; in assay [3], 1.9 nM; at recombinant GSK3β kinase, 1 nM; in assay [4], 191 nM; in assay [5], 52 nM; in the assay on IL-6, 411 nM. The same compound yielded a concentration for a half-maximal effect (EC50) in assay [6] of 615 nM.
Turning to `CN1CCN(CC(=O)Nc2cc3cc(-c4cncs4)ccc3cn2)CC1` [Compound 767, 2-(4-Methylpiperazin-1-yl)-N-(6-(thiazol-5-yl)isoquinolin-3-yl)acetamide], the EC50 is 1000 nM in assay [1]; 4.3 nM in assay [3]; 157 nM at recombinant GSK3β kinase; 3220 nM in assay [4]; greater than 10000 nM in assay [5]; 3820 nM with IL-6. This compound also gave an EC50 in assay [6] of 9050 nM. Also, the inhibition at 10 µM in assay [5] (setting [7]) was 33.2%.
